Laboratory results as given in ChEMBL document CHEMBL1201862, “PubChem BioAssay data set” (2004).
Values joined by “and” are separate entries in the source; they are usually repeats but may differ in a detail not shown here. Equal entries are not always repeated. Structures can show the parent of a compound that is named as a salt. Active and inactive are the calls of the source.

Key:
[1] = target: T1, Runt-related transcription factor 1/Core-binding factor subunit beta (Homo sapiens, UniProt Q01196+Q13951); experiment: Confirmation of compounds inhibiting the binding between the RUNX1 Runt domain and CBFb-SMMHC via a fluorescence resonance energy transfer (FRET) assay. [Related pubchem assays (depositor defined):AID1434, AID1438, AID1496, AID1550, AID1645]; type: protein assay
T1 sequence (Q01196 whole entry, the tested form may be a part): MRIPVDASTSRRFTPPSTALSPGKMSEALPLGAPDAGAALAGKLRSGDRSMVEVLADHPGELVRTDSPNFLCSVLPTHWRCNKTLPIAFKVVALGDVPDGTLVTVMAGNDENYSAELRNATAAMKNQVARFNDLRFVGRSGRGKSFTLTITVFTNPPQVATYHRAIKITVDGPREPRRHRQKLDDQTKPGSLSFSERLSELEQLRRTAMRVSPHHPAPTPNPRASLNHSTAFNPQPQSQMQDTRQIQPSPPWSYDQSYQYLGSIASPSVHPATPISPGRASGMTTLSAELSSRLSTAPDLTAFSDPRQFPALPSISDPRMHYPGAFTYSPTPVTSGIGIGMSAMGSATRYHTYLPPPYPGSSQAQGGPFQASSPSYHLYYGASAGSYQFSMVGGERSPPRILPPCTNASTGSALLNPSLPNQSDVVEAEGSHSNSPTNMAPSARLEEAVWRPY
T1 sequence (Q13951 whole entry, the tested form may be a part): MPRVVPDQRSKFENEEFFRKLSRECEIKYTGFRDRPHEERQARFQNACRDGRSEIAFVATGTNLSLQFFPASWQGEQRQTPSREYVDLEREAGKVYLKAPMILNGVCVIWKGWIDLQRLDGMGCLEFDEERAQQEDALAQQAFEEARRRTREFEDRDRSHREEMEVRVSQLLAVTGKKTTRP

[2] = target: T2, RNA-binding protein pos-1 (Caenorhabditis elegans, UniProt G5EF15); experiment: disruptors of C. elegans POS-1 RNA interaction – biochemical, fluorescence polarization, dose response (AID 1964);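 note: purified POS-1 fused to maltose binding protein made in E. coli; potency of compounds blocking POS-1 binding to fluorescent RNA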
T2 sequence (G5EF15 whole entry): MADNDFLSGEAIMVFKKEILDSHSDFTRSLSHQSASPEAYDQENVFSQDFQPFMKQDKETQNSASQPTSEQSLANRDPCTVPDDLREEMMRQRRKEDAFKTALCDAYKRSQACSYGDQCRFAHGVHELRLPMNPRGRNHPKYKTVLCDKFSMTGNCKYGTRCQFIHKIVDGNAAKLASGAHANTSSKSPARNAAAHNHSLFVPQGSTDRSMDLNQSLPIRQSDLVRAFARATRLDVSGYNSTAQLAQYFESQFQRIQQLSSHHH

[3] = target: T1, Runt-related transcription factor 1/Core-binding factor subunit beta; experiment: disruptors of Runt domain/CBFb-SMMHC interaction – biochemical, FRET, Cerulean-Runt, Venus-CBFb-SMMHC, uHTS, […] (AID 1434); type: protein assay
[4] = target: T3, Zinc finger protein mex-5 (Caenorhabditis elegans, UniProt Q9XUB2); experiment: potency of MEX-5 RNA-binding blockers – biochemical, C. elegans, fluorescence polarization, dose response (AID 1960)
T3 sequence (Q9XUB2 whole entry): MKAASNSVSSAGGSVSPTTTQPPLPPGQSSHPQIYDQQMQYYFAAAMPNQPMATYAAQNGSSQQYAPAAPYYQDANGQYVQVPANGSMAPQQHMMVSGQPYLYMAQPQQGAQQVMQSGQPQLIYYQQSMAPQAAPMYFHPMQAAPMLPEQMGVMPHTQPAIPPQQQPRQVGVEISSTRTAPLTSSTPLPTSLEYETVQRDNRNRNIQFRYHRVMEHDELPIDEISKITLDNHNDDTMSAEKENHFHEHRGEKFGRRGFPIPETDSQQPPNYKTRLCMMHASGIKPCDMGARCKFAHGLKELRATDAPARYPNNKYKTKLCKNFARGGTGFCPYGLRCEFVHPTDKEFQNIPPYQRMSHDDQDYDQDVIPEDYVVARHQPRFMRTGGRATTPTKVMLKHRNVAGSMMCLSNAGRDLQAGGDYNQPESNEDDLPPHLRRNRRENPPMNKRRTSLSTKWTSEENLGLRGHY

[5] = target: Large T antigen (Simian virus 40, UniProt P03070); type: functional, Betapolyomavirus macacae;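 note: Confirmatory-stage PubChem screen for compounds that inhibit SV40 T antigen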
Large T antigen, sequence (P03070 whole entry, the tested form may be a part): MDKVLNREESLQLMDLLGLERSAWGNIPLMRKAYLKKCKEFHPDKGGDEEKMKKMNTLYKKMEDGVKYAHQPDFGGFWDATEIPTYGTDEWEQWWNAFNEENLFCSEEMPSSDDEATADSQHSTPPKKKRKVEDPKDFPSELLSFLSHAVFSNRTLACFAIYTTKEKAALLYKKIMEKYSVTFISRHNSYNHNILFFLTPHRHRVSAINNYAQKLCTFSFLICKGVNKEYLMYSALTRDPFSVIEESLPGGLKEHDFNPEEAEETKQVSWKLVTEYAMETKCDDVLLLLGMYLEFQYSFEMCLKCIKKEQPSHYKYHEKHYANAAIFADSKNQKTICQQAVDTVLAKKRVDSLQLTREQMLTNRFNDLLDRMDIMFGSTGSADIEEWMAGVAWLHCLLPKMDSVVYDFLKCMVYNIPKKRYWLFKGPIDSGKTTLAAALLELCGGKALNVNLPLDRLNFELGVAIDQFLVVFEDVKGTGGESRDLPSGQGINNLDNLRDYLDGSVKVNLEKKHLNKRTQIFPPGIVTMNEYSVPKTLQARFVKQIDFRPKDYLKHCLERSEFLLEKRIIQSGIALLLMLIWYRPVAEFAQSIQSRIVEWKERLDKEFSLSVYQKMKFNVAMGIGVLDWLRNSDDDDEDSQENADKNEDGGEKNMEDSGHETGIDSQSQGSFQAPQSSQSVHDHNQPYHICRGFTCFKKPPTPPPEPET

[6] = target: T1, Runt-related transcription factor 1/Core-binding factor subunit beta; experiment: Runt domain/CBFb-SMMHC interaction disruptors – biochemical, TR-FRET (AID 1438); type: protein assay
[7] = target: T1, Runt-related transcription factor 1/Core-binding factor subunit beta; experiment: Confirmation of compounds inhibiting the binding between the RUNX1 Runt domain and CBFb-SMMHC via a time resolved fluorescence resonance energy transfer (TR-FRET) assay. [Related pubchem assays (depositor defined):AID1434, AID1438, AID1496, AID1560, AID1645]; type: protein assay
[8] = target: Induced myeloid leukemia cell differentiation protein Mcl-1 (Homo sapiens, UniProt Q07820); type: functional
[9] = target: T4, Mannose-6-phosphate isomerase (Homo sapiens, UniProt P34949); experiment: MPI inhibition at elevated mannose 6-phosphate – biochemical, fluorescence intensity, high mannose 6-phosphate, primary screen (AID 1220)
T4 sequence (P34949 whole entry): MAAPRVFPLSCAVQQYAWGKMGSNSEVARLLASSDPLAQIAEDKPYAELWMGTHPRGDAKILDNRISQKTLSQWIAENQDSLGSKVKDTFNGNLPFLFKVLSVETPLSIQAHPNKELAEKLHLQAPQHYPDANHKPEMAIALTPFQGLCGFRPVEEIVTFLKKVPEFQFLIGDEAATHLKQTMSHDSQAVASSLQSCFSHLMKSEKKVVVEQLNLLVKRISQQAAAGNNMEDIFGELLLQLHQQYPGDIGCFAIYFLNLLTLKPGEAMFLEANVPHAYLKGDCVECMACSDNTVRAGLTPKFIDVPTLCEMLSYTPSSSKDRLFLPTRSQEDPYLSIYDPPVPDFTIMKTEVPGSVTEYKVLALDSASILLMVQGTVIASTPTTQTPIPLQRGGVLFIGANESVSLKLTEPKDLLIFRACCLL

[10] = target: Glucose-6-phosphate 1-dehydrogenase (Homo sapiens, UniProt P11413); experiment: inhibition of Homo sapiens G6PD, dose series – biochemical, fluorescence, selectivity assay for P. falciparum G6PD inhibitor project, dose response (AID 504792); type: functional
[11] = target: Eukaryotic translation initiation factor 4E (Mus musculus, UniProt P63073); experiment: blockers of eIF4G binding by eIF4E – biochemical, TR-FRET, dose response (AID 855); type: functional;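 note: potency for disrupting eIF4E binding to eIF4GI seen as loss of FRET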
[12] = target: DNA dC->dU-editing enzyme APOBEC-3G (Homo sapiens, UniProt Q9HC16); experiment: Dose Response confirmation of small molecule APOBEC3G DNA Deaminase Inhibitors via a fluorescence-based single-stranded DNA deaminase assay. [Related pubchem assays (depositor defined):AID493012, AID493028]; type: functional
DNA dC->dU-editing enzyme APOBEC-3G, sequence (Q9HC16 whole entry): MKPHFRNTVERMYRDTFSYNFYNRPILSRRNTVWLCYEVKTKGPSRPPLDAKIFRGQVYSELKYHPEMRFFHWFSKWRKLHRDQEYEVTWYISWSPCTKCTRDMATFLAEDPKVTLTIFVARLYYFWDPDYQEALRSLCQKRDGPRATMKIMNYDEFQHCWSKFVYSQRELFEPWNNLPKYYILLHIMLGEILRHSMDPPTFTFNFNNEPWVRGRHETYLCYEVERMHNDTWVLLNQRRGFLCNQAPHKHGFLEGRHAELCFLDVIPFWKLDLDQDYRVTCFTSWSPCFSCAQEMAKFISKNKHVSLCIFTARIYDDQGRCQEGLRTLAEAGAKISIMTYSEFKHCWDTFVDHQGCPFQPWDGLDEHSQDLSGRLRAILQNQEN

[13] = target: T5, Mu-type opioid receptor (Homo sapiens, UniProt P35372); type: functional, cell-based
T5 sequence (P35372 whole entry): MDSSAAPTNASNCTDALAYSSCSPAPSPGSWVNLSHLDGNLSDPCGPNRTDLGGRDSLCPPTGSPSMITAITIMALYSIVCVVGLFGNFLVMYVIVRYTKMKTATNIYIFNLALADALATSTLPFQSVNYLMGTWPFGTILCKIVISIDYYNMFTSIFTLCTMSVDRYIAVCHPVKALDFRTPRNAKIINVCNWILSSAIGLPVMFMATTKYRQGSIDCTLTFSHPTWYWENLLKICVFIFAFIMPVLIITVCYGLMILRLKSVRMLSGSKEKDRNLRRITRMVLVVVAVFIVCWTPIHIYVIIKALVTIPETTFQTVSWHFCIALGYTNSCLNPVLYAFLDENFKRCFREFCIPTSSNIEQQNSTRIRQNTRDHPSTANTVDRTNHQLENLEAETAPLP

[14] = target: 5-hydroxytryptamine receptor 2A (Mus musculus, UniProt P35363); type: functional, cell-based;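 note: CHO-K1 cells with tagged receptor and beta-arrestin; agonist potency measured as compound-induced activation of the receptor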
5-hydroxytryptamine receptor 2A, sequence (P35363 whole entry): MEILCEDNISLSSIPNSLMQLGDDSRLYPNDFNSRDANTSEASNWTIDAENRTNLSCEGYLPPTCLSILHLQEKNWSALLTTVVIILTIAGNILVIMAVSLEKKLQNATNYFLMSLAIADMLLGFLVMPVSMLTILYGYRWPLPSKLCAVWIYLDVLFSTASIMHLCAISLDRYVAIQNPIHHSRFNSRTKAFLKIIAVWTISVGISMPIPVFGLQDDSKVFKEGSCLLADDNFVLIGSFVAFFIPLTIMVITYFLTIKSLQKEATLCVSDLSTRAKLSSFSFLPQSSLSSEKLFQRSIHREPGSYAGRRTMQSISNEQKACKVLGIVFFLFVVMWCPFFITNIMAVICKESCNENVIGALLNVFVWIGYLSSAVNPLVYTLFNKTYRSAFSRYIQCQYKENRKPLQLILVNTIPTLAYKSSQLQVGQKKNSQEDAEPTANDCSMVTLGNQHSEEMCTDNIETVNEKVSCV

[15] = target: T6, DNA repair protein RAD52 homolog (Homo sapiens, UniProt P43351); type: functional, biochemical
T6 sequence (P43351 whole entry): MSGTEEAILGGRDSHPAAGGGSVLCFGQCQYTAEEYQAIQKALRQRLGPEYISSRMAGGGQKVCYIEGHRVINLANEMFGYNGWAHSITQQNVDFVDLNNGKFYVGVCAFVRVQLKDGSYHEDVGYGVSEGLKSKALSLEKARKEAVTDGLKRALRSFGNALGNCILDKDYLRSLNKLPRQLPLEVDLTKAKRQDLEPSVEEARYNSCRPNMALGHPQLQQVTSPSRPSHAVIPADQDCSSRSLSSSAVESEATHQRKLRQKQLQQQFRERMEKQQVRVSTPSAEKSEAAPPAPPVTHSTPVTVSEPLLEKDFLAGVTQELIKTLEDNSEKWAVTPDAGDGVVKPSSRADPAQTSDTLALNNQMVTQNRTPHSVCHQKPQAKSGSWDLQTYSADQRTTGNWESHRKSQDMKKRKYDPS

[16] = viability loss in THP-1 monocytes – THP-1 cells, cytotoxicity control for Vif-APOBEC3G degradation inhibitor project, dose response (AID 1117359); type: functional; settings: THP-1
[17] = target: Glutathione-S-transferase (Schistosoma japonicum, UniProt Q26513); experiment: GST-antibody interaction or FRET quenching – biochemical, TR-FRET, artefact control for Vif-APOBEC3G degradation inhibitor project, dose response (AID 1117362); type: functional
Glutathione-S-transferase, sequence (Q26513 whole entry): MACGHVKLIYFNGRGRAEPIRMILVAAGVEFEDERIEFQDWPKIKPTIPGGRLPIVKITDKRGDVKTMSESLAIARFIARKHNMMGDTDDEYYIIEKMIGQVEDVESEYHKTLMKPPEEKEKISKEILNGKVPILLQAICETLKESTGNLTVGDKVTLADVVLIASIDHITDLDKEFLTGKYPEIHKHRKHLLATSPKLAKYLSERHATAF

[18] = target: Protein-arginine deiminase type-4 (Homo sapiens, UniProt Q9UM07); experiment: IC50 against protein arginine deiminase 4 – biochemical, fluorescence readout, dose response (AID 492970)
[19] = target: T7, Kappa-type opioid receptor (Homo sapiens, UniProt P41145); experiment: kappa opioid receptor activation by imaging – image-based, set 3, SAR follow-up (AID 488833); type: functional
T7 sequence (P41145 whole entry): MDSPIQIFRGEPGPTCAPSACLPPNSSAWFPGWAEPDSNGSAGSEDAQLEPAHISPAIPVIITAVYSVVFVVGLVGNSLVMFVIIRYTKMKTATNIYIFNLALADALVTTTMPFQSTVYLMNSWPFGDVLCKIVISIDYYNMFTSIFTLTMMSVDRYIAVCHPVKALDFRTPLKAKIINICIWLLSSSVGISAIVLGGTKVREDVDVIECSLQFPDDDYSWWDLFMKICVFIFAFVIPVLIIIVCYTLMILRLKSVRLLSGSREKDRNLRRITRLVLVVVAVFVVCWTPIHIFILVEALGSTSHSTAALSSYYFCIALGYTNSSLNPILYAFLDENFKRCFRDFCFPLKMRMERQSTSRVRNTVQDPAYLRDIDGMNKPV

[20] = target: T5, Mu-type opioid receptor; experiment: SAR Analysis of Agonists of the MOR Receptor using an Image-Based Assay - Set 3. [Related pubchem assays (depositor defined):AID1777, AID1785, AID1786, AID1966, AID2133, AID2136, AID2284, AID2285, AID2352]; type: functional
[21] = target: Delta-type opioid receptor (Homo sapiens, UniProt P41143); experiment: SAR Analysis of Agonists of the DOR Receptor using an Image-Based Assay - Set 3. [Related pubchem assays (depositor defined):AID1777, AID1786]; type: functional
Delta-type opioid receptor, sequence (P41143 whole entry): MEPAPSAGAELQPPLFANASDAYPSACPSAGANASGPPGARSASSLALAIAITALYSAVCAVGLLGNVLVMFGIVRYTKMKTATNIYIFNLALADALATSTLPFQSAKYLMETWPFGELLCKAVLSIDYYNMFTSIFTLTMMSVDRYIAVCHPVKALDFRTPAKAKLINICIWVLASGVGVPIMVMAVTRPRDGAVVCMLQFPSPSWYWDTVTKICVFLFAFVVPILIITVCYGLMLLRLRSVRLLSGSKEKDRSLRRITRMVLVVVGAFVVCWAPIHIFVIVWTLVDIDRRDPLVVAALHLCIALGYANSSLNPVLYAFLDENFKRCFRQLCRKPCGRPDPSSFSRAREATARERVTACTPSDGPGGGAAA

[22] = target: T7, Kappa-type opioid receptor; experiment: SAR analysis of small molecule agonists of the kappa opioid receptor via a luminescent beta-arrestin assay - Set 3. [Related pubchem assays (depositor defined):AID1777, AID1785, AID1786, AID1966, AID2133, AID2136, AID2284, AID2500]; type: functional
[23] = target: Sphingosine 1-phosphate receptor 1 (Homo sapiens, UniProt P21453); experiment: Fluorescence-based counterscreen assay for S1P4 agonists: Cell-based dose response high throughput screening assay to identify agonists of the Sphingosine 1-Phosphate Receptor 1 (S1P1). [Related pubchem assays (depositor defined):AID1509, AID1523, AID1801, AID463107, AID463118, AID463119, AID463122, AID463123, AID463129, AID463225, AID504400, AID504460]; type: functional
Sphingosine 1-phosphate receptor 1, sequence (P21453 whole entry): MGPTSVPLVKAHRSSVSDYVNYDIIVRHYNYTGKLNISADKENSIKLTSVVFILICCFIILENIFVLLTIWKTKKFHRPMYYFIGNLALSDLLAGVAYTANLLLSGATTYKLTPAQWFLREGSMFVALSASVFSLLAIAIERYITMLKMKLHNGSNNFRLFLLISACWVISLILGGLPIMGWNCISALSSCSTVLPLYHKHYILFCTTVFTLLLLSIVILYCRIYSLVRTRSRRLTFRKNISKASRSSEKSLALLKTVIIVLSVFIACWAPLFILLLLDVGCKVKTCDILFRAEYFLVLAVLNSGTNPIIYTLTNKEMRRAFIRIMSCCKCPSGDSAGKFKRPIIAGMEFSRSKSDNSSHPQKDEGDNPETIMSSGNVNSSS

[24] = target: Sphingosine 1-phosphate receptor 4 (Homo sapiens, UniProt O95977); experiment: Fluorescence dose response cell-based high throughput screening assay for agonists of the Sphingosine 1-Phosphate Receptor 4 (S1P4). [Related pubchem assays: 1509 (Primary screen.), 1523 (Confirmation screen in triplicates.)]; type: functional
Sphingosine 1-phosphate receptor 4, sequence (O95977 whole entry): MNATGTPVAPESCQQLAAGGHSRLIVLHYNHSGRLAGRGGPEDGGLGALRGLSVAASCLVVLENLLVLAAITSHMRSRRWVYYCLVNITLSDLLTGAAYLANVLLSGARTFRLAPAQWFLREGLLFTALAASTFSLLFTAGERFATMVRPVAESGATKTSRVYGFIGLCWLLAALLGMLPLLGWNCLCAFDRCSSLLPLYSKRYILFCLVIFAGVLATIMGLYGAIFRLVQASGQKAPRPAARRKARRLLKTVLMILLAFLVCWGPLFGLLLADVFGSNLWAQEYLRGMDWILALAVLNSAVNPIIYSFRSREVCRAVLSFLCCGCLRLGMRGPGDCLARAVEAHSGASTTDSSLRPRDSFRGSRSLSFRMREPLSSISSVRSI

[25] = target: T8, E3 ubiquitin-protein ligase XIAP (Homo sapiens, UniProt P98170); experiment: Counter Screen using XIAP-Bir3 for Chemical Antagonists of Bir1/2 domains of IAP-family anti-apoptotic proteins. [Related pubchem assays (depositor defined):AID1018, AID1449, AID1514, AID1638, AID1749, AID1750, AID488957, AID488963]
T8 sequence (P98170 whole entry): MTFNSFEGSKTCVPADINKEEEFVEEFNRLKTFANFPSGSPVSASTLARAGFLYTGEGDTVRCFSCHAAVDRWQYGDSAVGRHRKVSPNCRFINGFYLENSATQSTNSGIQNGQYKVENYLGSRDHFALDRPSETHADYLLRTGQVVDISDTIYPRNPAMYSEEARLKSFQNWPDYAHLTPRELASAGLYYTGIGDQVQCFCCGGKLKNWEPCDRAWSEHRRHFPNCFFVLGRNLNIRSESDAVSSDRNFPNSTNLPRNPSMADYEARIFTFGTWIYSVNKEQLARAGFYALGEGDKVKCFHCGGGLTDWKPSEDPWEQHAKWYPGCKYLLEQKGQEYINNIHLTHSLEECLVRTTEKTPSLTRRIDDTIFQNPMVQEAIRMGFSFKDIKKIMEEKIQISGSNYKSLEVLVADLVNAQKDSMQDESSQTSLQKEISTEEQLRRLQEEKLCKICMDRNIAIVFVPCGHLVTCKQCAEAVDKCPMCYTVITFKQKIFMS

[26] = target: T8, E3 ubiquitin-protein ligase XIAP; experiment: small molecules displacing peptide from XIAP – biochemical, IAP family, fluorescence polarization (AID 1018); type: functional
[27] = target: Peroxisome proliferator-activated receptor gamma/Nuclear receptor coactivator 1 (Homo sapiens, UniProt P37231); experiment: (§1) TR-FRET dose response biochemical High Throughput Screening assay for agonists of the steroid receptor coactivator 1 (SRC-1) recruitment by the peroxisome proliferator-activated receptor gamma (PPAR gamma): non-selective agonists. [Related pubchem assays (depositor defined):AID1300, AID1808, AID504735, AID631]; type: protein assay
[28] = target: Peroxisome proliferator-activated receptor gamma/Nuclear receptor coactivator 3 (Homo sapiens, UniProt P37231); experiment: as §1, with “3 (SRC-3)” for “1 (SRC-1)”, “assays: 1301 (Confirmation screen.), 1048 (Primary screen.)]” for “assays (depositor defined):AID1300, AID1808, AID504735, AID631]”; type: functional
[29] = target: Peroxisome proliferator-activated receptor gamma/Nuclear receptor coactivator 2 (Homo sapiens, UniProt P37231); experiment: TR-FRET dose response biochemical High Throughput Screening assay for agonists of the steroid receptor coactivator 2 (SRC-2) recruitment by the peroxisome proliferator-activated receptor gamma (PPAR gamma): non-selective agonists. [Related pubchem assays: 1297, 1032 ]; type: functional

For `CN1CCc2cccc3c2[C@H]1Cc1ccc(O)c(O)c1-3` [APOMORPHINE HYDROCHLORIDE], the IC50 [1] was 13.4 µM (active), the EC50 [2] was 16.9 µM (inconclusive) and the IC50 [3] was 9.66 µM (active). The EC50 [4] was 4.42 µM (active), the IC50 [5] was > 100 µM (active) and 15.3 µM (active) and the IC50 [6] was 9.81 µM (active). The IC50 [7] was 18.9 µM (active), the IC50 [8] was 4.38 µM (active) and the IC50 [9] was 14.6 µM (active). The IC50 [10] was 34.6 µM (inactive), the IC50 [11] was > 64 µM (inactive) and the IC50 [12] was 26.2 µM (active). The EC50 [13] was 92.5 µM (inactive) and 92.4 µM (inactive), the EC50 [14] was 6.41 nM (active) and 8.15 nM (active) and the AC50 [15] was 7.1 µM (active). The CC50 [16] was 16.9 µM (active) and the IC50 [17] was 74.8 µM (active).
In the case of `O=C1NCC2=C1C(c1ccccc1)Nc1ccccc1N2` (stereo not given), the IC50 [18] is reported as > 100 µM (inactive).
For `Fc1cccc(F)c1CSc1nnc(-c2ccccn2)n1Cc1ccco1`, the EC50 [19] was > 32 µM (inactive), the EC50 [20] was > 32 µM (inactive) and the EC50 [21] was > 64 µM (inactive). For the same molecule, the EC50 [22] was > 20 µM (inactive).
In the case of `C/C(=N/NC(N)=S)c1cc2ccc(O)cc2oc1=O`, the EC50 [23] is reported as 93.5 µM (inactive), the IC50 [5] is reported as 27.7 µM (active) and the EC50 [24] is reported as 11.8 µM (not active).
For `COc1ccc(NC(=O)Cc2ccc(C)cc2)c([N+](=O)[O-])c1`, the IC50 [25] was > 100 µM (inactive) and the IC50 [26] was > 100 µM (not active).
With `CCOc1ccc(CCNC(=O)CSc2cc(=O)n(CC)c3ccccc23)cc1OCC` the EC50 [27] was > 79.4 µM (inactive), the EC50 [28] was > 79.4 µM (not active) and the EC50 [29] was 121 µM (not active).
